{
  "source": "ChEMBL document CHEMBL1828590",
  "about": "(J Med Chem, 2011)",
  "key": {"[1]": {"assay": "Half life in human liver microsomes", "format": "ADME, Microsome"}, "[2]": {"assay": "Apparent permeability from apical to basolateral side of human Caco2 cells", "format": "ADME, cell-based", "settings": "Caco-2"}, "[3]": {"assay": "Cmax in nude BALB/c mouse at 50 mg/kg, po", "format": "ADME, organism-based", "parameters": "dose 50 mg/kg, route oral", "settings": "in vivo"}, "[4]": {"assay": "Volume of distribution at steady state in Wistar rat at 2 mg/kg, iv", "format": "ADME, organism-based", "parameters": "dose 2 mg/kg, route intravenous", "settings": "in vivo, read-out: Vdss"}, "[5]": {"assay": "AUC (0 to infinity) in Wistar rat at 2 mg/kg, iv", "format": "ADME, organism-based", "parameters": "time infinity, dose 2 mg/kg, route intravenous", "settings": "plasma"}, "[6]": {"tested_on": "Mus musculus", "assay": "Toxicity in nude BALB/c mouse xenografted with human HCT116 cells assessed as body weight loss at 100 mg/kg, po QD for 21 days measured on day 20", "format": "organism-based, HCT-116", "parameters": "dose 100 mg/kg, route oral", "settings": "in vivo, 504 h"}, "[7]": {"tested_on": "Mus musculus", "assay": "Toxicity in nude BALB/c mouse xenografted with human HCT116 cells assessed as mouse survival at 200 mg/kg, po QD for 21 days measured on day 22", "format": "organism-based, HCT-116", "parameters": "dose 200 mg/kg, route oral", "settings": "in vivo, 504 h"}, "[8]": {"assay": "AUC (0 to infinity) in Wistar rat at 10 mg/kg, po", "format": "ADME, organism-based", "parameters": "time infinity, dose 10 mg/kg, route oral", "settings": "plasma"}, "[9]": {"assay": "Volume of distribution at steady state in Beagle dog at 2 mg/kg, iv", "format": "ADME, organism-based, Canis lupus familiaris", "parameters": "dose 2 mg/kg, route intravenous", "settings": "in vivo, read-out: Vdss"}, "[10]": {"tested_on": "A2780", "assay": "Antitumor activity against human A2780 cells xenografted in nude BALB/c mouse assessed as tumor growth inhibition at 50 mg/kg, po qd for 21 days measured on day 9", "format": "functional", "settings": "read-out: TGI"}, "[11]": {"tested_on": "Mus musculus", "assay": "Toxicity in nude BALB/c mouse xenografted with human A2780 cells assessed as maximum body weight loss at 100 mg/kg, po QD for 21 days measured on day 20", "format": "organism-based", "parameters": "dose 100 mg/kg, route oral", "settings": "in vivo, 504 h"}, "[12]": {"tested_on": "Mus musculus", "assay": "Toxicity in nude BALB/c mouse xenografted with human A2780 cells assessed as maximum body weight loss at 50 mg/kg, po QD for 21 days measured on day 13", "format": "organism-based", "parameters": "dose 50 mg/kg, route oral", "settings": "in vivo, 504 h"}, "[13]": {"tested_on": "MV4-11", "assay": "Antitumor activity against human MV4-11 cells xenografted in nude BALB/c mouse assessed as tumor growth inhibition at 25 mg/kg, po qd for 21 days measured on day 21", "format": "functional", "settings": "MV4-11, 504 h, read-out: TGI"}, "[14]": {"tested_on": "Mus musculus", "assay": "Toxicity in nude BALB/c mouse xenografted with human MV4-11 cells assessed as mortality at 50 mg/kg, po QD for 21 days measured on day 21", "format": "organism-based", "parameters": "dose 50 mg/kg, route oral", "settings": "in vivo, 504 h"}, "[15]": {"tested_on": "Mus musculus", "assay": "Toxicity in nude BALB/c mouse xenografted with human MV4-11 cells assessed as mortality at 25 mg/kg, po QD for 21 days measured on day 21", "format": "organism-based", "parameters": "dose 25 mg/kg, route oral", "settings": "in vivo, 504 h"}},
  "data": [
    {"smiles": "CCCCc1nc2cc(/C=C/C(=O)NO)ccc2n1CCN(CC)CC.Cl.Cl", "values": [
      {"measurement": "half-life", "setting": "[1]", "result": "> 1", "unit": "h"},
      {"measurement": "Papp A→B", "setting": "[2]", "result": 7.04, "unit": "×10⁻⁶ cm/s"},
      {"measurement": "Cmax", "setting": "[3]", "result": 6.1, "unit": "µM"},
      {"measurement": "Vd", "setting": "[4]", "result": 1.66, "unit": "L/kg"},
      {"measurement": "AUC(0-inf)", "setting": "[5]", "result": 1.15, "unit": "µM·h"},
      {"measurement": "Activity", "setting": "[6]", "result": 19.9, "unit": "%"},
      {"measurement": "Activity", "setting": "[7]", "result": "Toxic"},
      {"measurement": "AUC(0-inf)", "setting": "[8]", "result": 0.181, "unit": "µM·h"},
      {"measurement": "Vd", "setting": "[9]", "result": 4.24, "unit": "L/kg"},
      {"measurement": "inhibition in vivo at 50 mg/kg", "setting": "[10]", "result": 44, "unit": "%"},
      {"measurement": "Activity", "setting": "[11]", "result": 20, "unit": "%"},
      {"measurement": "Activity", "setting": "[12]", "result": 8.9, "unit": "%"},
      {"measurement": "inhibition in vivo at 25 mg/kg", "setting": "[13]", "result": 61, "unit": "%"},
      {"measurement": "Activity", "setting": "[14]", "result": "Non-toxic"},
      {"measurement": "Activity", "setting": "[15]", "result": "Non-toxic"}
    ]}
  ]
}
